Experimental data reported in PMC6604316 (Virology Journal, 2019).
Read-outs that look alike come from different tables or passages of the source.

Key:
[1] = molecular target: NA of A/Texas/12/2007 (H3N2 119E) (Influenza A virus (A/Texas/12/2007(H3N2)), UniProt D1FVK3); assay: biochemical; type: biochemical
[2] = tested on: NA protein of LPAI H7N9 virus, 292 K; conditions: cited from earlier work

CC(=O)N[C@H]1[C@H]([C@H](O)[C@H](O)CO)OC(C(=O)O)=C[C@@H]1N=C(N)N [Zanamivir, zanamivir]
IC50 [1]: 1.71 ± 0.63 nM
fold increase in the IC50 [2]: 67 fold

oseltamivir carboxylate
IC50 ([1]; read-out: Mean IC50 (nM) ± SD): 0.12 ± 0.01 nM
fold increase in the IC50 [2]: more than 1000 fold
